# Measurements as given in patent US9040691B2, “Hydroxymethylaryl-substituted pyrrolotriazines as ALK1 inhibitors” (BAYER INTELLECTUAL PROPERTY GMBH, priority 2011, dated 2015).
# Where a name gives a salt, the structure may show the parent alone.
# Molecular target: ALK1 kinase (Homo sapiens (Human), UniProt P37023)
# Assay: In vitro enzyme inhibition using scintillation of incorporated radio label (flashplate assay)
# Assay type: biochemical
# Conditions: biotinylated α-casein, 33P-ATP, 500 nM ATP
# Protocol: B-1a. In Vitro Enzyme Inhibition Using Scintillation of Incorporated Radio Label (Flashplate Assay)
# Test compounds diluted in DMSO are mixed with a suitable substrate/co-substrate (here: biotinylated α-casein and ^33P-ATP) in a corresponding assay buffer. Addition of the enzyme of interest (here: ALK1 kinase) starts the enzyme reaction. The enzyme-catalyzed incorporation of radio label into the substrate is measured via scintillation. Incorporated radio label is separated from free radio label via specific binding of the biotinylated substrate to strepavidin-coated microtiter plates (flashplates) and concomitant washing steps. The scintillation signal intensity (counts per minutes, cpm) is proportional to the enzyme activity. Enzyme inhibition results in a decreased signal intensity. IC50 values of the test compounds are determined by cpm-versus-[I] plots.
# Reaction buffer contains 50 mM Tris pH 8.0 (Sigma), 1 mM MnCl2 (Sigma), 0.01% Nonidet P40 (Fluka), 0.5× Complete EDTA-free protease inhibitors (Roche; contains a mixture of several protease inhibitors for the inhibition of serine and cysteine (but not metallo-) proteases; 1 tablet contains protease inhibitors sufficient for a 50 ml cell extract; the concentration used in this assay corresponds to 1 tablet in 100 ml).
# • 1.) Stop solution: Dulbecco's PBS (PAA, Pasching, Austria), 25 mM EDTA (Sigma), 25 μM ATP (Roche), 0.05% Triton X-100 (Sigma); • 2.) Saturation buffer: Dulbecco's PBS (PAA, Pasching, Austria), 100 μM ATP (Roche), 0.2% Triton X-100 (Sigma); • 3.) Wash buffer: Dulbecco's PBS (PAA, Pasching, Austria). Enzyme Solution:
# ALK1 (Invitrogen, Paisley, United Kingdom) stock solution (35.7 ng/μl) is diluted to 4 ng/μl; final concentration in the reaction is 1 ng/μl.
# Dephosphorylated α-casein (Sigma) is biotinylated according to the manufacturer's protocol (Pierce, Bonn, Germany) resulting in a stock solution of 61.6 μM. Briefly, EZ-Link® Biotin reagent (sulfosuccinimidyl-6-(biotinamido)hexanoate; Pierce, Bonn, Germany) is added in equal molarity to α-casein and incubated on ice for 2 h. Afterwards, the biotin reagent is removed by dialysis (2×2 h and overnight).
# A 100 mM solution of cold (unlabelled) ATP (Roche) is diluted 1:100 before each test. For the substrate mix, α-casein is diluted to 2.22 μM resulting in a final concentration of 1 μM α-casein in the reaction. Additionally, cold ATP is added to give a 1.11 μM solution which results in a final concentration of 500 nM in the reaction.
# Radioactive ATP Solution:
# The stock solution (9.25 MBq/25 μl of ^33P-ATP; Perkin Elmer, Rodgau, Germany) is diluted to 651.2 Bq/μl.
# Compounds are dissolved in 100% DMSO (10 mM stock solution) and diluted to 2 mM. Further dilutions are made stepwise 1:3.16 in DMSO.
# A volume of 9 μl substrate solution is provided into each well of a 384 well microliter plate (Greiner Bio-One, Solingen, Germany), 1 μl compound solution and 5 μl of the radioactive ATP solution are added. Enzyme reaction starts with addition of 5 μl of enzyme solution. The mixture is incubated for 60 minutes at room temperature and then stopped by addition of 10 μl stop solution. The 384 well microliter flashplates (Perkin Elmer, Rodgau, Germany) are saturated with 50 μl saturation buffer per well for at least 60 minutes. Subsequently, a volume of 20 μl is discarded and replaced with 20 μl of the stopped ALK1 reaction mixture. Binding of biotinylated substrate to the flashplate is allowed for by overnight incubation at room temperature. Bound substrate is separated from unbound components through repeated washing steps (3×50 μl washing buffer per well). Finally, 50 μl washing buffer is added, and the scintillation signal (cpm) is measured in a suitable counter (Perkin Elmer, Rodgau, Germany).
# Chain of ALK1 kinase (P37023 22-503): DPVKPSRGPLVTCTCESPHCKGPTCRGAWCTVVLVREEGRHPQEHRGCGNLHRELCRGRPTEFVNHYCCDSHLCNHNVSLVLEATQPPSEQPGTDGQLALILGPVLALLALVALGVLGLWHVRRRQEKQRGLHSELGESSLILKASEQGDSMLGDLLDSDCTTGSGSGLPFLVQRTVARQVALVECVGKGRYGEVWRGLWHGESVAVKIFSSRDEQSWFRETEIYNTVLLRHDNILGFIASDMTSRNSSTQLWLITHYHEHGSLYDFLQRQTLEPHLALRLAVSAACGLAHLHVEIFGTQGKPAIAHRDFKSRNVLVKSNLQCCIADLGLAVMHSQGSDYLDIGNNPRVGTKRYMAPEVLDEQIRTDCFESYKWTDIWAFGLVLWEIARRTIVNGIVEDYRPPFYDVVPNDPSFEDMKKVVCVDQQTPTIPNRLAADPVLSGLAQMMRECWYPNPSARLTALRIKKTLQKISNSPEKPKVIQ
row,SMILES,IC50 [nM]
1,"Cc1nc(-c2cc(-c3ccc(CO)cc3)c3c(N)ncnn23)cs1 [Example 13, {4-[4-Amino-7-(2-methyl-1,3-thiazol-4-yl)pyrrolo[2,1-f][1,2,4]triazin-5-yl]phenyl}methanol]",4
2,"Nc1ncnn2c(CN3CCOCC3)cc(-c3ccc(CO)nc3)c12 [Example 24, {5-[4-Amino-7-(morpholin-4-ylmethyl)pyrrolo[2,1-f][1,2,4]triazin-5-yl]pyridin-2-yl}methanol]",140
3,"Cc1cc(-c2cc(C3CCNC3)n3ncnc(N)c23)cc(F)c1CO (stereo not shown) [Example 32, {4-[4-Amino-7-(pyrrolidin-3-yl)pyrrolo[2,1-f][1,2,4]triazin-5-yl]-2-fluoro-6-methylphenyl}-methanol]",4
4,"Cc1cc(-c2cc(CN3CCOCC3)n3ncnc(N)c23)ccc1CO [Example 23, {4-[4-Amino-7-(morpholin-4-ylmethyl)pyrrolo[2,1-f][1,2,4]triazin-5-yl]-2-methylphenyl}methanol]",30
5,"Nc1ncnn2c(C3CCNCC3)cc(-c3ccc(CO)cc3)c12 [Example 10, {4-[4-Amino-7-(piperidin-4-yl)pyrrolo[2,1-f][1,2,4]triazin-5-yl]phenyl}methanol]",8
6,"Nc1ncnn2c(C3(O)CCCCC3)cc(-c3cc(F)c(CO)c(F)c3)c12 [Example 33, 1-{4-Amino-5-[3,5-difluoro-4-(hydroxymethyl)phenyl]pyrrolo[2,1-f][1,2,4]triazin-7-yl}cyclohexanol trifluoroacetate]",15
7,"CCc1nc(-c2cc(-c3ccc(CO)cc3)c3c(N)ncnn23)cs1 [Example 15, {4-[4-Amino-7-(2-ethyl-1,3-thiazol-4-yl)pyrrolo[2,1-f][1,2,4]triazin-5-yl]phenyl}methanol]",60
8,"Nc1ncnn2c(CN3CCNCC3)cc(-c3ccc(CO)cc3)c12 [Example 18, {4-[4-Amino-7-(piperazin-1-ylmethyl)pyrrolo[2,1-f][1,2,4]triazin-5-yl]phenyl}methanol]",80
9,"Nc1ncnn2c(CN3CCOCC3)cc(-c3ccc(CO)cc3)c12 [Example 19, {4-[4-Amino-7-(morpholin-4-ylmethyl)pyrrolo[2,1-f][1,2,4]triazin-5-yl]phenyl}methanol]",19
10,"Nc1ncnn2c(CCCCO)cc(-c3ccc(CO)cc3)c12 [Example 4, 4-{4-Amino-5-[4-(hydroxymethyl)phenyl]pyrrolo[2,1-f][1,2,4]triazin-7-yl}butan-1-ol]",1

# Further lines, results first:
row,IC50 [nM],SMILES
1,70,"Nc1ncnn2c(CN3CCCC(O)C3)cc(-c3cc(F)c(CO)c(F)c3)c12 (stereo not shown) [Example 27, 1-({4-Amino-5-[3,5-difluoro-4-(hydroxymethyl)phenyl}pyrrolo[2,1-f][1,2,4]triazin-7-yl]methyl)piperidin-3-ol]"
2,40,"Nc1ncnn2c(C(O)C3CCOCC3)cc(-c3cc(F)c(CO)c(F)c3)c12 (stereo not shown) [Example 6, {4-Amino-5-[3,5-difluoro-4-(hydroxymethyl)phenyl]pyrrolo[2,1-f][1,2,4]triazin-7-yl}(tetrahydro-2H-pyran-4-yl)methanol]"
3,5.7,"Nc1ncnn2c(C3(O)CCCNC3)cc(-c3cc(F)c(CO)c(F)c3)c12 (racemic) [Example 9, rac-3-{4-Amino-5-[3,5-difluoro-4-(hydroxymethyl)phenyl]pyrrolo[2,1-f][1,2,4]triazin-7-yl}-piperidin-3-ol]"
4,4,"Cc1cc(-c2cc(C3CCCNC3)n3ncnc(N)c23)cc(F)c1CO (stereo not shown) [Example 31, {4-[4-Amino-7-(piperidin-3-yl)pyrrolo[2,1-f][1,2,4]triazin-5-yl]-2-fluoro-6-methylphenyl}-methanol]"
5,1,"COc1cc(-c2cc([C@H]3CC[C@H](O)CC3)n3ncnc(N)c23)cc(F)c1CO [Example 29, trans-4-{4-Amino-5-[3-fluoro-4-(hydroxymethyl)-5-methoxyphenyl]pyrrolo[2,1-f][1,2,4]triazin-7-yl}cyclohexanol]"
6,5.3,"Cc1nc(-c2cc(-c3cc(F)c(CO)c(F)c3)c3c(N)ncnn23)cs1 [Example 14, {4-[4-Amino-7-(2-methyl-1,3-thiazol-4-yl)pyrrolo[2,1-f][1,2,4]triazin-5-yl]-2,6-difluorophenyl}-methanol]"
7,30,"Nc1ncnn2c(CN3CCC(O)C3)cc(-c3cc(F)c(CO)c(F)c3)c12 (stereo not shown) [Example 26, 1-({4-Amino-5-[3,5-difluoro-4-(hydroxymethyl)phenyl]pyrrolo[2,1-f][1,2,4]triazin-7-yl}methyl)pyrrolidin-3-ol]"
8,5.9,"Nc1ncnn2c([C@H]3CCCNC3)cc(-c3cc(F)c(CO)c(F)c3)c12 [Example 12, (4-{4-Amino-7-[(3S)-piperidin-3-yl]pyrrolo[2,1-f][1,2,4]triazin-5-yl}-2,6-difluorophenyl)methanol]"
9,3.8,"CC(O)c1cc(-c2cc(F)c(CO)c(F)c2)c2c(N)ncnn12 (racemic) [Example 44, rac-1-{4-Amino-5-[3,5-difluoro-4-(hydroxymethyl)phenyl]pyrrolo[2,1-f][1,2,4]triazin-7-yl}-ethanol]"
10,2.6,"CCc1nc(-c2cc(-c3cc(F)c(CO)c(F)c3)c3c(N)ncnn23)cs1 [Example 16, {4-[4-Amino-7-(2-ethyl-1,3-thiazol-4-yl)pyrrolo[2,1-f][1,2,4]triazin-5-yl]-2,6-difluorophenyl}-methanol]"
11,65,"Nc1ncnn2c(CN3CCC(O)CC3)cc(-c3cc(F)c(CO)c(F)c3)c12 [Example 25, 1-({4-Amino-5-[3,5-difluoro-4-(hydroxymethyl)phenyl]pyrrolo[2,1-f][1,2,4]triazin-7-yl}methyl)piperidin-4-ol]"
12,4.1,"NCc1nc(-c2cc(-c3cc(F)c(CO)c(F)c3)c3c(N)ncnn23)cs1 [Example 34, (4-[4-Amino-7-[2-(aminomethyl)-1,3-thiazol-4-yl]pyrrolo[2,1-f][1,2,4]triazin-5-yl]-2,6-difluorophenyl)methanol]"
